We go through seven molecules from PMC7956567, “Aqueous Solubility of Organic Compounds for Flow Battery Applications: Symmetry and Counter Ion Design to Avoid Low-Solubility Polymorphs” (Molecules, 2021).

Data set [1] in a line: Solubility by NMR method with imidazole as internal standard. It is filed as physicochemical. From the text: (§1) Figure 3 illustrates the two methods used to determine solubility. The first method was gravimetry which required a higher amount of analyte to reduce any error arising from possible co-crystalized compounds. This method is easy to realize without the need for high-tech equipment, and its result is also a reference for the other method performed by NMR spectroscopy. The NMR method required only a small quantity of the analyte and was more accurate as no co-crystalized compounds were counted in its homogeneous solution phase.
The NMR spectra used to determine the solubility were recorded with a known amount of imidazole as the internal standard.
^1H NMR spectra were recorded in DMSO-d6 or CDCl3 solution at room temperature, on a Varian Unity Inova 500 spectrometer (Bruker Corp. Oxford, UK) (500 and 125 MHz for ^1H NMR and APT-NMR spectra, respectively), with the residual solvent signal as the lock and imidazole as the internal standard (only for solubility determination). Chemical shifts (δ) and coupling constants (J) are given in ppm and Hz, respectively.

Details of data set [2]: method as in doi:10.1149/1945-7111/ab7550. Particulars: water; disodium salts; cited from earlier work.
The nature of data set [3]: Solubility by gravimetry. Type of data set: physicochemical. The following applies: aqueous buffer, thermodynamic from solid, 1 M sulfuric acid, first isolated polymorph.
Text: as §1

The mark [4] stands for this setting: 1 M acid, counter ion PO3 3− (phosphate), aqueous buffer, thermodynamic from solid, 1 M acid, counter ion PO3 3− [sic] (phosphate), read-out: Solubility in 1 M acid, PO3 3−.
[5] abbreviates: 1 M sulfuric acid, aqueous buffer, thermodynamic from solid, 1 M sulfuric acid, counter ion SO4 2−, final (more stable) polymorph, read-out: Solubility in 1 M acid, SO4 2−.

Values after ≈ are worked out from the molar mass of the structure shown. Values joined by “and” are separate entries in the source; they are usually repeats but may differ in a detail not shown here. Identical values can stand only once. Counter-ions that a name gives are not always drawn.

With “2,3-dimethyl-5-[(morpholin-4-yl)methyl]benzene-1,4-diol [MMHQ]”, the “Solubility in 1 M acid, ClO4−” value in data set [1] (1 M acid, counter ion ClO4−) is 20 mM. Besides, in data set [1] (1 M acid, counter ion Cl−, NMR method, validated by gravimetric analysis), the “Solubility in 1 M acid, Cl−” value is 0.07 ^1 M. Further, in data set [1] (1 M acid, counter ion PO3 3− [sic] (phosphate)), the “Solubility in 1 M acid, PO3 3−” value amounted to 0.48 M. Further, the “Solubility in 1 M acid, SO4 2−” value in data set [1] (1 M sulfuric acid, counter ion SO4 2−, final (more stable) polymorph) was 480 mM.
In the case of `O=C1c2cccc(S(=O)(=O)[O-])c2C(=O)c2cccc(S(=O)(=O)[O-])c21.[Na+].[Na+]` [1,5-AQDSNa2, 9,10-dioxo-9,10-dihydroanthracene-1,5-disulfonic acid disodium salt], the Aqueous solubility in data set [2] was 70 mM.
In the case of `O=C1c2ccc(S(=O)(=O)[O-])cc2C(=O)c2ccc(S(=O)(=O)[O-])cc21.[Na+].[Na+]` [2,6-AQDSNa2, 9,10-dioxo-9,10-dihydroanthracene-2,6-disulfonic acid disodium salt, reference compound], in data set [1] (water, disodium salt, NMR method with imidazole as internal standard, read-out: Aqueous solubility), the solubility came out at 40 mM. The Aqueous solubility result in data set [2] is listed as “below 0.1 M”.
As to `O=C1c2ccc(S(=O)(=O)O)cc2C(=O)c2cc(S(=O)(=O)O)ccc21` [2,7-AQDS disodium salt, 9,10-dioxo-9,10-dihydroanthracene-2,7-disulfonic acid], the Aqueous solubility in data set [2] is 580 mM and 740 mM.
Consider `Oc1cc(CN2CCOCC2)c(O)cc1CN1CCOCC1` [DMHQ, 2,5-bis[(morpholin-4-yl)methyl]benzene-1,4-diol], for which the solubility was 1700 mM (≈ 524 mg/mL) in data set [3]; 10 mM (≈ 3.08 mg/mL) in data set [1] (1 M acid, counter ion ClO4−, aqueous buffer, thermodynamic from solid, 1 M acid, counter ion ClO4−, read-out: Solubility in 1 M acid, ClO4−); 30 mM (≈ 9.25 mg/mL) in data set [1] (1 M acid, counter ion Cl−, thermodynamic from solid, 1 M acid, counter ion Cl−, NMR method, validated by gravimetric analysis, read-out: Solubility in 1 M acid, Cl−); 530 mM (≈ 163 mg/mL) in data set [1] (setting [4]); 80 mM (≈ 24.7 mg/mL) in data set [1] (setting [5]); below 100 mM in data set [1] (1 M sulfuric acid, one year later, new polymorph, method not given, read-out: Solubility in 1 M sulfuric acid one year later).
With `Cc1c(O)c(C)c(CN2CCOCC2)c(O)c1CN1CCOCC1` [asym-DDHQ, 2,6-dimethyl-3,5-bis[(morpholin-4-yl)methyl]benzene-1,4-diol], the solubility is 550 mM (≈ 185 mg/mL) in data set [1] (setting [4]) and 440 mM (≈ 148 mg/mL) in data set [1] (setting [5]).
On to `Cc1c(O)c(CN2CCOCC2)c(C)c(O)c1CN1CCOCC1` [sym-DDHQ, 2,5-dimethyl-3,6-bis[(morpholin-4-yl)methyl]benzene-1,4-diol], for which the solubility amounted to 400 mM (≈ 135 mg/mL) in data set [1] (setting [4]); 60 mM (≈ 20.2 mg/mL) in data set [1] (setting [5]); 240 mM (≈ 80.7 mg/mL) in data set [1] (1 M sulfuric acid, aqueous buffer, thermodynamic from solid, 1 M sulfuric acid, freshly obtained product, first polymorph, NMR method, read-out: Solubility of first polymorph in 1 M sulfuric acid).

By Aqueous solubility is commonly meant the concentration that dissolves in the medium under given conditions. Usually solubility stands for the concentration that dissolves in the medium under given conditions.
